In US20030054053A1, “Methods and compositions for inhibiting the proliferation of prostate cancer cells” (priority 2001, published 2003):

What was measured:
Assay type in all cases: cell-based, Human
[1] = tested on: LNCaP cells; experiment: LNCaP cell proliferation, MTS assay
Method: (§1) Human prostate cancer cell line, LNCaP (American Type Culture Collection (ATCC), Manassas, Va.), was grown in RPMI 1640 medium (Mediatech, Herndon, Va.) supplemented with 5% fetal bovine serum (FBS) and 5% CO2 at 37° C. until reaching approximately 50-70% confluence. The media were changed to serum-free RPMI 1640 at 24 hours prior to experiments being performed to deplete undesired steroids. […] Equivalent amounts of solvent were added to control cells.
(§2) Five days later, cell proliferation was measured by MTS assay kit (Promega, Madison, Wis.), and PSA and hK2 levels in spent media were determined by the Tandem-E PSA kit (Hybritech Inc., San Diego, Calif.) or Mayo's hK2 assay (Zhang et al., 1999, Endocrin., 140:1665-71).

[2] = tested on: androgen receptor; experiment: Immunocytochemical staining, whole cell androgen receptor in LNCaP cells; details: Mib alone versus absence of androgens
Method: Twenty-four hrs later, LNCaP cell slides were washed with 1×PBS, and fixed in acetone at −20° C. for 10 min. The air-dried slides were treated with EtOH/chloroform (1:1) mixture for 5 min to permeate the cell membrane and air-dried again. The slides were washed with 1×TBST and stained with a monoclonal antibody against the human androgen receptor (Pharmingen) using a DAKO kit (DAKO). The androgen receptor staining was observed using microscopy (Zeiss, Thornwood, N.Y.). The density of androgen receptor in a nucleus (or a whole cell) and the area of the nucleus or the whole cell were quantified by KS400 software (Zeiss) provided by the Mayo Molecular Core Facility. The androgen receptor protein level in a nucleus or a whole cell was calculated by multiplication of the density of androgen receptor in the nucleus or the whole cell with the area of the nucleus or the whole cell, respectively. In each sample, 20 to 25 cells were analyzed. All results were analyzed by 2-tailed Student's t-test. A p<0.05 was accepted as the level of significance.

[3] = tested on: PSA; experiment: PSA level in spent media of LNCaP cells (Tandem-E PSA kit); details: 1 nM Mib, five days
Method: as §1, §2

[4] = tested on: FKBP51; experiment: FKBP51 protein level, Western blot in LNCaP cells; details: 1 nM Mib, 24 hrs
Method: Cells were harvested and the whole cell lysate and nuclear extract were prepared as described (Zhu et al., 1999, Endocrin., 140:5451-4). Western blotting analysis was performed according to the protocol described (Id). A mouse antibody against human FKBP51 (1:5,000 dilution) (a gift from Dr. David Toft, Mayo Clinic), the human androgen receptor (1:1000 or 1:2000 dilution) (Pharmingen, San Diego, Calif.) or human Sp1 (1:2000 dilution) (Santa Cruz, Santa Cruz, Calif.) was used as the primary antibody. Ponceau S staining was used for monitoring protein loading and transfer efficiency (Mitchell et al., 1999, Cancer Res., 59:5892-5).

[5] = tested on: hK2; experiment: hK2 level in spent media of LNCaP cells (Mayo's hK2 assay); details: 1 nM Mib, five days
Method: as §1, §2

SMILES: C[C@@H]1CC2=CC(=O)CC[C@@H]2[C@H]2CC[C@@]3(C)[C@@H](CC[C@]3(C)O)[C@@H]21 [Mib, mibolerone, reference compound]
- LNCaP cell growth in the presence of Mib ([1]; 1 nM Mib alone): increased significantly
- androgen receptor level [2]: increased the androgen receptor level significantly

SMILES: COc1cc(C2Oc3cc([C@H]4Oc5cc(O)cc(O)c5C(=O)[C@@H]4O)ccc3OC2CO)ccc1O (some centres unmarked) [silibin]
- PSA accumulation stimulated by androgens [3]: inhibited
- androgen-induced FKBP51 protein level [4]: reduced
- androgen-stimulated cell growth ([1]; 1 nM Mib, five days, MTS): inhibited
- androgen-stimulated cell growth at 75 μM ([1]; 1 nM Mib, silibin 75 μM): fully suppressed
- cell proliferation in the absence of Mib ([1]; no Mib, five days, MTS): neither silymarin or silibin affected
- hK2 accumulation stimulated by androgens [5]: inhibited
